Measured values reported in patent US10588317B2, “Isoxazoline-substituted benzamides and analogues as insecticides” (priority 2015, dated 2020).

Tests used:
Assay type in all cases: in vivo
Diabrotica balteata = Diabrotica balteata (corn root worm), sprayed maize sprouts; conditions: 96 h, application rate 200 ppm, L2 larvae, 4 days after infestation, read-out: effect in at least one of the two categories (mortality or growth inhibition)
Outline: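 Read-out at 4 days post-infestation: mortality and growth inhibition relative to untreated samples. Test solutions (200 ppm, from DMSO stocks) were sprayed onto agar-held maize sprouts, which after drying received 6–10 L2 larvae per well.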

Euschistus heros = Euschistus heros (neotropical brown stink bug), sprayed soybean leaves; conditions: 120 h, application rate 200 ppm, N2 nymphs, 5 days after infestation, read-out: effect in at least one of the two categories (mortality or growth inhibition)
Outline: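 Scored 5 days post-infestation versus untreated controls, for both mortality and growth inhibition: N2 nymphs placed on agar-mounted soybean leaves previously sprayed at 200 ppm with aqueous test solutions from DMSO stocks and left to dry.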

Myzus persicae = Myzus persicae (green peach aphid): feeding/contact activity; conditions: 144 h, application rate 200 ppm, aphid population of mixed ages, 6 days after infestation, read-out: mortality
Protocol: Sunflower leaf discs were placed onto agar in a 24-well microtiter plate and sprayed with aqueous test solutions prepared from 10'000 ppm DMSO stock solutions. After drying, the leaf discs were infested with an aphid population of mixed ages. The samples were assessed for mortality 6 days after infestation.

Plutella xylostella = Plutella xylostella (diamond back moth), artificial diet; conditions: 120 h, application rate 200 ppm, L2 larvae, 5 days after infestation, read-out: effect in at least one of the two categories (mortality or growth inhibition)
Outline: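 L2 larvae (10-15 per well) fed on compound-treated, dried artificial diet; test solutions diluted in water from 10'000 ppm DMSO stocks. Readout 5 days post-infestation as mortality or growth inhibition versus untreated diet, with at least 80% effect at 200 ppm as threshold.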

Spodoptera littoralis [1] = assay: Spodoptera littoralis (Egyptian cotton leaf worm), sprayed cotton leaf discs; conditions: foliar, 72 h, application rate 200 ppm, L1 larvae, 3 days after infestation, read-out: control (mortality, anti-feeding effect, growth inhibition)
Outline: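 Five first-instar larvae placed on dried cotton leaf discs (on agar) previously sprayed with aqueous dilutions of 10'000 ppm DMSO stocks. Scored at 3 days against untreated discs for mortality, feeding inhibition and growth inhibition; any category above untreated counts as control.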

Spodoptera littoralis [2] = assay: Spodoptera littoralis (Egyptian cotton leaf worm), uptake by lettuce roots from agar; conditions: 144 h, read-out: effect in at least one of the three categories (mortality, anti-feeding, or growth inhibition);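 note: 12.5 ppm test rate in agar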
Outline: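 Systemic test: Spodoptera eggs placed on lettuce leaves from seedlings raised 7 days on agar containing the compound (diluted from 10'000 ppm DMSO stock). Six days after infestation, larvae scored against untreated controls for mortality, feeding deterrence and growth inhibition.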

Tetranychus urticae = Tetranychus urticae (two-spotted spider mite): feeding/contact activity; conditions: 192 h, application rate 200 ppm, mixed population (mobile stages), 8 days after infestation, read-out: mortality
Protocol: Bean leaf discs on agar in 24-well microtiter plates were sprayed with aqueous test solutions prepared from 10'000 ppm DMSO stock solutions. After drying the leaf discs were infested with a mite population of mixed ages. The samples were assessed for mortality on mixed population (mobile stages) 8 days after infestation.

Thrips tabaci = Thrips tabaci (onion thrips): feeding/contact activity; conditions: 144 h, application rate 200 ppm, Thrips population of mixed ages, 6 days after infestation, read-out: mortality
Protocol: Sunflower leaf discs were placed on agar in 24-well microtiter plates and sprayed with aqueous test solutions prepared from 10'000 ppm DMSO stock solutions. After drying the leaf discs were infested with a Thrips population of mixed ages. The samples were assessed for mortality 6 days after infestation.

CCN(C)S(=O)(=O)N1CC(NC(=O)c2ccc(C3=NO[C@@](c4cc(Cl)c(Cl)c(Cl)c4)(C(F)(F)F)C3)cc2C)CO1 (stereo partly drawn) [Compound A73, N-[2-[ethyl(methyl)sulfamoyl]isoxazolidin-4-yl]-2-methyl-4-[(5S)-5-(3,4,5-trichlorophenyl)-5-(trifluoromethyl)-4H-isoxazol-3-yl]benzamide]
≥ 80%: percent effect (mortality or growth inhibition) at 200 ppm (Diabrotica balteata) | percent effect (mortality or growth inhibition) at 200 ppm (Euschistus heros) | mortality at 200 ppm (Myzus persicae) | percent effect (mortality or growth inhibition) at 200 ppm (Plutella xylostella) | mortality at 200 ppm (Spodoptera littoralis [1]) | percent control (mortality, anti-feedant effect or growth inhibition) at 12.5 ppm (Spodoptera littoralis [2]) | mortality at 200 ppm (Tetranychus urticae) | mortality at 200 ppm (Thrips tabaci)

Cc1cc(C2=NOC(c3cc(Cl)c(F)c(Cl)c3)(C(F)(F)F)C2)ccc1C(=O)NC1CON(S(C)(=O)=O)C1 (stereo not drawn) [Compound A63]
≥ 80%: percent effect (mortality or growth inhibition) at 200 ppm (Diabrotica balteata) | percent effect (mortality or growth inhibition) at 200 ppm (Euschistus heros) | mortality at 200 ppm (Myzus persicae) | percent effect (mortality or growth inhibition) at 200 ppm (Plutella xylostella) | mortality at 200 ppm (Spodoptera littoralis [1]) | percent control (mortality, anti-feedant effect or growth inhibition) at 12.5 ppm (Spodoptera littoralis [2]) | mortality at 200 ppm (Tetranychus urticae) | mortality at 200 ppm (Thrips tabaci)

Cc1cc(C2=NO[C@@](c3cc(Cl)c(F)c(Cl)c3)(C(F)(F)F)C2)ccc1C(=O)NC1CON(S(=O)(=O)NC(C)(C)C)C1 (stereo partly drawn) [Compound A97]
≥ 80%: percent effect (mortality or growth inhibition) at 200 ppm (Diabrotica balteata) | percent effect (mortality or growth inhibition) at 200 ppm (Euschistus heros) | mortality at 200 ppm (Myzus persicae) | percent effect (mortality or growth inhibition) at 200 ppm (Plutella xylostella) | mortality at 200 ppm (Spodoptera littoralis [1]) | percent control (mortality, anti-feedant effect or growth inhibition) at 12.5 ppm (Spodoptera littoralis [2]) | mortality at 200 ppm (Tetranychus urticae) | mortality at 200 ppm (Thrips tabaci)

Cc1cc(C2=NOC(c3cc(Cl)cc(C(F)(F)F)c3)(C(F)(F)F)C2)ccc1C(=O)NC1CON(S(C)(=O)=O)C1 (stereo not drawn) [Compound A62]
≥ 80%: percent effect (mortality or growth inhibition) at 200 ppm (Diabrotica balteata) | percent effect (mortality or growth inhibition) at 200 ppm (Euschistus heros) | mortality at 200 ppm (Myzus persicae) | percent effect (mortality or growth inhibition) at 200 ppm (Plutella xylostella) | mortality at 200 ppm (Spodoptera littoralis [1]) | percent control (mortality, anti-feedant effect or growth inhibition) at 12.5 ppm (Spodoptera littoralis [2]) | mortality at 200 ppm (Tetranychus urticae) | mortality at 200 ppm (Thrips tabaci)

Cc1cc(C2=NO[C@@](c3cc(Cl)c(Cl)c(Cl)c3)(C(F)(F)F)C2)ccc1C(=O)N[C@H]1CON(S(N)(=O)=O)C1 [Compound A68, 2-methyl-N-[(4R)-2-sulfamoylisoxazolidin-4-yl]-4-[(5S)-5-(3,4,5-trichlorophenyl)-5-(trifluoromethyl)-4H-isoxazol-3-yl]benzamide]
≥ 80%: percent effect (mortality or growth inhibition) at 200 ppm (Diabrotica balteata) | percent effect (mortality or growth inhibition) at 200 ppm (Euschistus heros) | mortality at 200 ppm (Myzus persicae) | percent effect (mortality or growth inhibition) at 200 ppm (Plutella xylostella) | mortality at 200 ppm (Spodoptera littoralis [1]) | percent control (mortality, anti-feedant effect or growth inhibition) at 12.5 ppm (Spodoptera littoralis [2]) | mortality at 200 ppm (Tetranychus urticae) | mortality at 200 ppm (Thrips tabaci)

CNS(=O)(=O)N1C[C@@H](NC(=O)c2ccc(C3=NO[C@@](c4cc(Cl)cc(C(F)(F)F)c4)(C(F)(F)F)C3)cc2Cl)CO1 [Compound A115, 2-chloro-4-[(5S)-5-[3-chloro-5-(trifluoromethyl)phenyl]-5-(trifluoromethyl)-4H-isoxazol-3-yl]-N-[(4R)-2-(methylsulfamoyl)isoxazolidin-4-yl]benzamide]
≥ 80%: percent effect (mortality or growth inhibition) at 200 ppm (Diabrotica balteata) | percent effect (mortality or growth inhibition) at 200 ppm (Euschistus heros) | mortality at 200 ppm (Myzus persicae) | percent effect (mortality or growth inhibition) at 200 ppm (Plutella xylostella) | mortality at 200 ppm (Spodoptera littoralis [1]) | percent control (mortality, anti-feedant effect or growth inhibition) at 12.5 ppm (Spodoptera littoralis [2]) | mortality at 200 ppm (Tetranychus urticae) | mortality at 200 ppm (Thrips tabaci)

CNS(=O)(=O)N1C[C@@H](NC(=O)c2ccc(C3=NO[C@@](c4cc(Cl)c(Cl)c(Cl)c4)(C(F)(F)F)C3)cc2C)CO1 [Compound A67, 2-methyl-N-[(4R)-2-(methylsulfamoyl)isoxazolidin-4-yl]-4-[(5S)-5-(3,4,5-trichlorophenyl)-5-(trifluoromethyl)-4H-isoxazol-3-yl]benzamide]
≥ 80%: percent effect (mortality or growth inhibition) at 200 ppm (Diabrotica balteata) | percent effect (mortality or growth inhibition) at 200 ppm (Euschistus heros) | mortality at 200 ppm (Myzus persicae) | percent effect (mortality or growth inhibition) at 200 ppm (Plutella xylostella) | mortality at 200 ppm (Spodoptera littoralis [1]) | percent control (mortality, anti-feedant effect or growth inhibition) at 12.5 ppm (Spodoptera littoralis [2]) | mortality at 200 ppm (Tetranychus urticae) | mortality at 200 ppm (Thrips tabaci)

Cc1cc(C2=NO[C@@](c3cc(Cl)c(F)c(Cl)c3)(C(F)(F)F)C2)ccc1C(=O)N[C@H]1CON(S(C)(=O)=O)C1 (single isomer, unassigned) [Compound A13]
≥ 80%: percent effect (mortality or growth inhibition) at 200 ppm (Diabrotica balteata) | percent effect (mortality or growth inhibition) at 200 ppm (Euschistus heros) | mortality at 200 ppm (Myzus persicae) | percent effect (mortality or growth inhibition) at 200 ppm (Plutella xylostella) | mortality at 200 ppm (Spodoptera littoralis [1]) | percent control (mortality, anti-feedant effect or growth inhibition) at 12.5 ppm (Spodoptera littoralis [2]) | mortality at 200 ppm (Tetranychus urticae) | mortality at 200 ppm (Thrips tabaci)

CCS(=O)(=O)N1C[C@@H](NC(=O)c2ccc(C3=NO[C@@](c4cc(Cl)cc(Cl)c4)(C(F)(F)F)C3)cc2Cl)CO1 [Compound A117]
≥ 80%: percent effect (mortality or growth inhibition) at 200 ppm (Diabrotica balteata) | percent effect (mortality or growth inhibition) at 200 ppm (Euschistus heros) | mortality at 200 ppm (Myzus persicae) | percent effect (mortality or growth inhibition) at 200 ppm (Plutella xylostella) | mortality at 200 ppm (Spodoptera littoralis [1]) | percent control (mortality, anti-feedant effect or growth inhibition) at 12.5 ppm (Spodoptera littoralis [2]) | mortality at 200 ppm (Tetranychus urticae) | mortality at 200 ppm (Thrips tabaci)

Cc1cc(C2=NO[C@@](c3cc(Cl)c(Cl)c(Cl)c3)(C(F)(F)F)C2)ccc1C(=O)N[C@H]1CON(S(C)(=O)=O)C1 [Compound A36]
≥ 80%: percent effect (mortality or growth inhibition) at 200 ppm (Diabrotica balteata) | percent effect (mortality or growth inhibition) at 200 ppm (Euschistus heros) | mortality at 200 ppm (Myzus persicae) | percent effect (mortality or growth inhibition) at 200 ppm (Plutella xylostella) | mortality at 200 ppm (Spodoptera littoralis [1]) | percent control (mortality, anti-feedant effect or growth inhibition) at 12.5 ppm (Spodoptera littoralis [2]) | mortality at 200 ppm (Tetranychus urticae) | mortality at 200 ppm (Thrips tabaci)

Cc1cc(C2=NO[C@@](c3cc(Cl)cc(C(F)(F)F)c3)(C(F)(F)F)C2)ccc1C(=O)NC1CON(S(C)(=O)=O)C1 (stereo partly drawn) [Compound A20]
≥ 80%: percent effect (mortality or growth inhibition) at 200 ppm (Diabrotica balteata) | percent effect (mortality or growth inhibition) at 200 ppm (Euschistus heros) | mortality at 200 ppm (Myzus persicae) | percent effect (mortality or growth inhibition) at 200 ppm (Plutella xylostella) | mortality at 200 ppm (Spodoptera littoralis [1]) | percent control (mortality, anti-feedant effect or growth inhibition) at 12.5 ppm (Spodoptera littoralis [2]) | mortality at 200 ppm (Tetranychus urticae) | mortality at 200 ppm (Thrips tabaci)

Cc1cc(C2=NO[C@@](c3cc(Cl)c(F)c(Cl)c3)(C(F)(F)F)C2)ccc1C(=O)N[C@@H]1CON(S(C)(=O)=O)C1 (single isomer, unassigned) [Compound A12]
≥ 80%: percent effect (mortality or growth inhibition) at 200 ppm (Diabrotica balteata) | percent effect (mortality or growth inhibition) at 200 ppm (Euschistus heros) | mortality at 200 ppm (Myzus persicae) | percent effect (mortality or growth inhibition) at 200 ppm (Plutella xylostella) | mortality at 200 ppm (Spodoptera littoralis [1]) | percent control (mortality, anti-feedant effect or growth inhibition) at 12.5 ppm (Spodoptera littoralis [2]) | mortality at 200 ppm (Tetranychus urticae) | mortality at 200 ppm (Thrips tabaci)
